In ChEMBL document CHEMBL5665440, “ASAP - In vitro liver microsomal stability” (2024):
Where “and” joins values, the source holds several entries; their conditions need not be identical. Equal values may be shown once.

Tests used:
[1] = (§1) Human liver microsomal stability of compound in microsomal protein, PBS buffer pH 7.4, NADPH, glucose-6-phosphate and glucose-6-phosphate dehydrogenase media. Aliquotes were taken at 5 time points and after stopping the reaction, supernatants were analyzed using HPLC coupled with a tandem mass spectrometer. The elimination constant, half-life, and intrinsic clearance are determined as results using linear regression analysis.; assay type: ADME, microsomes, Microsome; conditions: for half-life / microsomal CLint: liver microsomes
[2] = as §1, with “Mouse” for “Human”; assay type: ADME, microsomes, Microsome; conditions: for half-life / microsomal CLint: liver microsomes; for Remaining / Remaining (without cofactor): microsomes
Wherever Remaining (without cofactor) is given: time not given here.
Wherever Remaining is given: time not given here.

Row | Compound | half-life [1] | microsomal CLint [1] | Remaining ([1]; microsomes) | Remaining (without cofactor) ([1]; microsomes) | half-life [2] | microsomal CLint [2] | Remaining [2] | Remaining (without cofactor) [2] | CLint ([1]; microsomes) | T1/2 ([1]; microsomes)
1 | CO[C@H]1C[C@H](n2ncc3c(C(=O)Nc4ccc5c(c4)CNC5)cc(Cl)cc32)C1 | > 173 min | < 10 µL/min/mg | 104.617% | 107.995% | > 173 min | < 10 µL/min/mg | 91.321% | 100.159% | – | –
2 | O=C(Nc1cc2c(c(-c3c[nH]c(=O)c(F)c3)c1)CNC2)c1cc(F)cc2[nH]ncc12 | > 173 min | < 10 µL/min/mg | 95.49% | 97.444% | 6.88 min | 243 µL/min/mg | 2.163% | 108.846% | – | –
3 | O=C1Cc2cc(C(=O)Nc3ccc4c(c3)CNC4)ccc2N1 | – | – | – | – | > 173 min | < 10 µL/min/mg | 102.985% | 100.305% | – | –
4 | O=C(/C=C/c1ccccc1)C(=O)N1CCN(CCc2ccccc2)CC1 | 10 min | 167 µL/min/mg | 6% | 98% | 9.2 min | 181 µL/min/mg | 5% | 96% | – | –
5 | CC(C)NC(=O)[C@H](Nc1ccc2c(c1)CNC2)c1cc(Cl)cc2[nH]c(-c3ccccc3)nc12 | – | – | 67.537% and 102.526% | 101.395% and 117.42% | 151 min | 11 µL/min/mg | 84% | 98.417% | 23.218 µL/min/mg and < 10 µL/min/mg | 71.937 min and > 173.3 min
6 | O=C(NCC(F)F)[C@H](Nc1ccc2c(c1)CNC2)c1cc(Cl)cc2c1CCC2 | 119 min | 14 µL/min/mg | 80.194% | 105.323% | 52.9 min | 31.6 µL/min/mg | 60.623% | 103.851% | – | –
7 | Cn1ncc2c(C(=O)Nc3ccc4c(c3)CNC4)cc(Cl)cc21 | > 173 min | < 10 µL/min/mg | 91.353% | 101.456% | 65.4 min | 25.5 µL/min/mg | 63.701% | 92.242% | – | –
8 | Cc1c(C(=O)Nc2cc(-c3cccnc3)ccn2)cc(C2CC2)n1C | – | – | – | – | 4.3 min | 388 µL/min/mg | 0.854% | 95.554% | – | –
9 | O=C(Nc1ccc2c(c1)CNC2)c1cc(Cl)cc2c1cnn2C1CCC1 | > 173 min | < 10 µL/min/mg | 93.064% | 105.277% | 125 min | 13.4 µL/min/mg | 78.077% | 96.092% | – | –
10 | Cn1c(=O)[nH]c2c(C(=O)Nc3ccc4c(c3)CNC4)cc(Br)cc21 | > 173 min | < 10 µL/min/mg | 97.872% | 85.479% | 134 min | 12.5 µL/min/mg | 78.028% | 113.254% | – | –
11 | CNC(=O)[C@H](Nc1ccc2c(c1)CNC2)c1cc(Cl)cc(C2CC2)c1 | > 173 min | < 10 µL/min/mg | 90.859% | 112.656% | > 173 min | < 10 µL/min/mg | 87.863% | 93.167% | – | –
12 | O=C(Nc1ccc2c(c1)CNC2)c1cc(Cl)cc2cn[nH]c12 | > 173 min | < 10 µL/min/mg | 105.314% | 104.393% | 31 min | 54 µL/min/mg | 41.728% | 98.046% | – | –
13 | CCCC[C@@H](NC(=O)OC(C)(C)C)C(=O)N[C@@H](C(=O)NCc1ccc(CN)cc1)c1ccc(OCc2ccccc2)cc1 | 29.8 min | 56 µL/min/mg | 40.588% | 99.499% | 186 min | 7.44 µL/min/mg | 87.681% | 94.521% | – | –
14 | O=C(Nc1ccc2c(c1)CNC2)c1cc(F)cc2c1CCC2 | > 173 min | < 10 µL/min/mg | 95.811% | 102.779% | 44.7 min | 37.4 µL/min/mg | 53.571% | 103.66% | – | –
15 | CN(c1ccc2c(c1)CNC2)[C@H](C(=O)NCC(F)F)c1cc(Cl)cc(C2CC2)c1 | 97.7 min | 17.1 µL/min/mg | 74.869% | 95.997% | 158 min | 10.6 µL/min/mg | 80.041% | 110.954% | – | –
16 | O=C1Cc2c(cccc2C(=O)Nc2ccc3c(c2)CNC3)N1 | > 173 min | < 10 µL/min/mg | 90.707% | 85.739% | > 173 min | < 10 µL/min/mg | 102.559% | 103.618% | – | –

Row | Compound | half-life [1] | microsomal CLint [1] | Remaining ([1]; microsomes) | Remaining (without cofactor) ([1]; microsomes) | half-life [2] | microsomal CLint [2] | Remaining [2] | Remaining (without cofactor) [2] | CLint ([1]; microsomes) | T1/2 ([1]; microsomes)
17 | O=C(NCC(F)F)[C@H](Nc1ccc2c(c1)CNC2)c1cc(Cl)cc(C2CC2)c1 | > 173 min | < 10 µL/min/mg | 87.774% and 93.401% and 87.317% and 91.082% | 101.867% and 96.07% and 104.631% and 112.978% | > 173 min | < 10 µL/min/mg | 90.622% and 93.184% | 90.232% and 99.155% | – | –
18 | COc1cc(-c2cc(NC(=O)c3cc(F)cc4[nH]ncc34)cc3c2CNC3)ccn1 | > 173 min | < 10 µL/min/mg | 90.289% | 101.002% | 6.43 min | 260 µL/min/mg | 1.475% | 106.757% | – | –
19 | N#CCCNC(=O)[C@H](Nc1ccc2c(c1)CNC2)c1cc(Cl)cc(C2CC2)c1 | > 173 min | < 10 µL/min/mg | 90.394% | 113.364% | > 173 min | < 10 µL/min/mg | 93.147% | 101.58% | – | –
20 | O=C(NCC(F)F)[C@H](Nc1ccc2c(c1)CNC2)c1cc(Br)cc2nc[nH]c12 | > 173 min | < 10 µL/min/mg | 100.118% | 106.151% | > 173 min | < 10 µL/min/mg | 93.302% | 93.905% | – | –
21 | O=C(Nc1ccc2c(c1)CNC2)c1cc(Br)cc2[nH]c(-c3ccccc3)nc12 | 131 min | 12.8 µL/min/mg | 80.427% | 94.891% | 38.1 min | 43.8 µL/min/mg | 49.173% | 86.086% | – | –
22 | NCc1cccc(NC(=O)C[C@H](NC(=O)OCc2ccccc2)c2ccc(OCc3ccccc3)c(Br)c2)c1 | 135 min | 12.4 µL/min/mg | 79.862% | 98.099% | > 173 min | < 10 µL/min/mg | 98.216% | 98.077% | – | –
23 | O=C(Nc1cc2c(c(C3=CCOCC3)c1)CNC2)c1cc(F)cc2[nH]ncc12 | > 173 min | < 10 µL/min/mg | 90.19% | 105.644% | 11 min | 152 µL/min/mg | 8.587% | 96.063% | – | –
24 | NCc1cccc(CNC(=O)[C@@H](NC(=O)OCc2ccccc2)c2ccc(OCc3ccccc3)cc2)c1 | 430 min | 3.88 µL/min/mg | 94.901% | 89.996% | 507 min | 2.73 µL/min/mg | 103.125% | 96.808% | – | –
25 | O=C(Nc1ccc2c(c1)CNC2)c1cc(Cl)cc2ccncc12 | > 173 min | < 10 µL/min/mg | 107.799% | 101.944% | 68.2 min | 24.5 µL/min/mg | 67.731% | 99.51% | – | –
26 | O=C(Nc1cc2c(cc1C1CC1)CNC2)c1cc(F)cc2[nH]ncc12 | > 173 min | < 10 µL/min/mg | 104.365% | 104.155% | 19.2 min | 86.8 µL/min/mg | 23.262% | 95.024% | – | –
27 | CCOc1cccc(-c2ccc(S(=O)(=O)Nc3ccc(Cl)cc3C(=O)O)cc2)c1 | 14 min | 119 µL/min/mg | 15.029% | 93.83% | – | – | – | – | – | –
28 | NCc1cccc(NC(=O)c2cc(Cl)cc(NC(=O)OCc3ccccc3)c2)c1 | > 173 min | < 10 µL/min/mg | 93.647% | 102.839% | – | – | – | – | – | –
29 | O=C(Nc1cc(Cl)cc(C(=O)Nc2n[nH]c3c2CNC3)c1)OCc1ccccc1 | > 173 min | < 10 µL/min/mg | 100.832% | 95.38% | – | – | – | – | – | –
30 | c1ccc2sc(C3CCN(Cc4c[nH]c5ccccc45)CC3)nc2c1 | 43.8 min | 38.1 µL/min/mg | 53.75% | 101.907% | – | – | – | – | – | –
31 | CC(C)c1nc2c(C(=O)Nc3cccc(CN)c3)cccc2[nH]1 | > 173 min | < 10 µL/min/mg | 101.28% | 99.543% | – | – | – | – | – | –
32 | NCc1cccc(NC(=O)[C@@H](NC(=O)OCc2ccccc2)C2CCCCC2)c1 | 316 min | 5.29 µL/min/mg | 90.368% | 108.836% | – | – | – | – | – | –
